Converted amounts (≈) assume the structure as drawn.
Legend:
Assay type in all cases: functional, cell-based
MOLT-4 = assay: Cytotoxicity against human MOLT4 cells by MTT assay
IMR-90 = assay: Cytotoxicity against human IMR90 cells by MTT assay
DLD-1 = assay: Cytotoxicity against human DLD1 cells by MTT assay

## CCCCC/C=C\C[C@@]1(O)C=C(I)C(=O)[C@@H]1[C@H](/C=C\CCCC(=O)OC)OC(C)=O
MOLT-4
  IC50: 0.52 µg/mL (≈ 0.977 µM)
IMR-90
  IC50: 4.5 µg/mL (≈ 8.45 µM)
DLD-1
  IC50: 0.6 µg/mL (≈ 1.13 µM)
